Laboratory results from patent US20070207967A1, “Peptide Inhibitors of Matrix Metalloproteinase Activity” (CTT CANCER TARGETING TECHNOLOGIES OY, priority 2004, published 2007).

Tests used:
leukocytes = conditions: ref (12); cited from earlier work
neutrophil recruitment = conditions: acute inflammation model in mice; ref (48); cited from earlier work
αM integrin I domain [1] = molecular target: T1, αM integrin I domain (Homo sapiens, UniProt P11215); conditions: ref (12); cited from earlier work
αM integrin I domain [2] = molecular target: T1, αM integrin I domain; assay: Pro-MMP-9 binding to αM integrin I domain
Description: Pro-MMP-9 and gelatin binding to leukocyte αM integrin. Pro-MMP-9 binding to the αM I domain in the presence of peptides was studied as described (12). Gelatin binding to the pro-MMP-^9/αMβ2 integrin complex was studied by immobilizing the integrin αMβ2 (12) or αIIbβ3 as a control (Enzyme Research Laboratories, South Bend, Ind.) (1 μg/well) in TBS/1 mM CaCl2/1 mM MgCl2 followed by saturation of the wells with 1% BSA in PB ST. Pro-MMP-9 (100 ng/well) was incubated for 2 h and the unbound pro-MMP-9 was washed away. Biotinylated gelatin (2.5 μg/ml) was allowed to bind for 30 min at room temperature. Bound gelatin was detected with streptavidin-peroxidase.

pro-MMP-9 = pro-MMP-9 (Homo sapiens, UniProt P14780); assay: Pro-MMP-9 activation in THP-1 cells, zymography; format: cell-based; conditions: THP-1, pro-MMP-3 and plasminogen, peptides 200 μM
Description: Activation of MMP-9. THP-1 cells (40 000/100 μl) or confluent HT1080 cells were incubated for 16 h in the presence or absence of 2.5 μg/ml plasminogen, 0.5 μg/ml pro-MMP-3 (Oncogene Research Products), 40 nM PDBu, and the peptides at a 200 μM concentration unless otherwise indicated. Aliquots of the conditioned media were analyzed by gelatin zymography (9). […] The samples were analyzed by gelatin zymography.

[3] = test system: β5 integrin-transfected CS-1 melanoma cells; assay: 125I-C domain binding to cells; format: cell-based, hamster; conditions: unlabelled proteins 50 μg/ml, peptides 50 μM
Description: ^125I-C domain binding to cells. The MMP-9 C domain was labelled with ^125I to a specific activity 0.06 μCi/pmol. The labelled domain retained 40% of the CRV peptide-binding activity as shown by the phage-binding assay. […] After a preincubation of 1.5×10^6 cells in a 200 μl volume on ice for 30 min with the competitors, ^125I-labelled C domain (1×10^6 cpm) was added and incubated for three hours on ice. The cells were transferred to tubes containing 200 μl of dibutyl phthalate/cyclohexane mixture (23:2 vol/vol), centrifuged 7500×g for 10 minutes and snap-frozen (24). The bottom of the tube containing the cells were cut and analyzed with a gamma-counter.

T1 sequence (P11215 150-328 limits assumed): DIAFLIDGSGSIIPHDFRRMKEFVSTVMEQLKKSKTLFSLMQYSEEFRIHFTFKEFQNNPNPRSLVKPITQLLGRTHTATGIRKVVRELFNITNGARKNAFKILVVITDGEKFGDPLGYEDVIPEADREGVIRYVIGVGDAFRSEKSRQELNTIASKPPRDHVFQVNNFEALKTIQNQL
Chain of pro-MMP-9 (P14780 20-707 limits assumed): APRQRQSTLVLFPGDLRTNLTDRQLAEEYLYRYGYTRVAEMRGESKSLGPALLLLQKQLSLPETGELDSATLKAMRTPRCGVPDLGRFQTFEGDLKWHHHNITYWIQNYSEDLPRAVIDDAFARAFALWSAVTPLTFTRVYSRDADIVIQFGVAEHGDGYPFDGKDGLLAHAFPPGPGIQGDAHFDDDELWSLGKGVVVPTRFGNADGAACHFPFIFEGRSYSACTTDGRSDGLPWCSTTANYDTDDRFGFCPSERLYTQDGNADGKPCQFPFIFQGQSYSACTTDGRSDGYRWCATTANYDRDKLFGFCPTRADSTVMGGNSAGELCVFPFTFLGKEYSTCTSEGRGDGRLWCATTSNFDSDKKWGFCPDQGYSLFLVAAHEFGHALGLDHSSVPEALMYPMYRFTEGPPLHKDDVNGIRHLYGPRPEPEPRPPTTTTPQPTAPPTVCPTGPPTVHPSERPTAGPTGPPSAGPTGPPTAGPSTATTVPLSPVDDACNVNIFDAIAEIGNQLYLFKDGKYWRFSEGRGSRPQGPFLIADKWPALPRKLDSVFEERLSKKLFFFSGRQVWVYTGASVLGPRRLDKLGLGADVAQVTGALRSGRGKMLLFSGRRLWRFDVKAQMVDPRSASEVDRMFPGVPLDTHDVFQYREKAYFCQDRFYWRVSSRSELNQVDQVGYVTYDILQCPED

Row | Effect on interaction of MMP-9 with the leukocyte αM integrin I domain (αM integrin I domain [2]) | Effect on pro-MMP-9 activation (pro-MMP-9) | Substance | Inhibition of migration of leukocytes (leukocytes) | Inhibition of neutrophil recruitment (neutrophil recruitment) | Competition with pro-MMP-9 binding to I domain of αM integrin subunit (αM integrin I domain [1]) | Competition of 125I-labelled MMP-9 C domain binding to β5 integrin-transfected CS-1 cells [3]
1 | blocked | augmented | ADGACILWMDDGWCGAAG | inhibited migration of leukocytes | active in vivo inhibiting neutrophil recruitment | competed | –
2 | – | – | GRGDSP [reference compound] | – | – | – | No competition
